Where “and” joins values, the source holds several entries; their conditions need not be identical. Equal entries are not always repeated. Entries after “also recorded” stand apart in the source; their conditions may differ.
How the values were obtained:
H929 cells [1] = assay: CCK8 cytotoxicity, H929 multiple myeloma cells; type: cell-based; conditions: Homo sapiens, NCI-H929, 72 h
Description: (§1) (1) Cell lines: human multiple myeloma cells (H929 cells, OPM2 cells, U266 cells, OCI-MY5 cells, RPMI 8266 cells) (from ATCC of USA. The cells were passaged and preserved in the applicant's laboratory), were cultured in a 1640 culture medium (containing 10% fetus bovine serum).
(§2) The cells were cultured in 1640 medium (containing 10% fetal bovine serum, pH 7.2) supplemented with 2 mmol/L glutamine. The cells were cultured in a cell culture incubator at 37° C., 5% CO2.
(§3) A single-cell suspension of human multiple myeloma cells (H929 cells, OPM2 cells, U266 cells, OCI-MY5 cells, RPMI 8266 cells) was taken for cell counting, and the cell concentration was adjusted to 2×10^5 cells/mL. 95 μL of the above cell suspension was added into each well of a 96-well culture plate, and then 5 μL of the drug prepared with the medium was added at different concentrations, while the same volume of culture medium was added in the control group. Three parallel wells were set in each group. The plate was subjected to continuous culture for 72 h. 2 hours before the end of the culture, 10 μL of CCK8 reagent was added into each well, and the plate was continued to culture in a CO2 incubator. After 2 hours, the OD value of each well at 450 nm was detected by an automatic microplate reader. […]

U266 cells = assay: CCK8 cytotoxicity, U266 multiple myeloma cells; type: cell-based; conditions: Homo sapiens, U-266, 72 h
Description: as §1, §2, §3

RPMI 8266 cells = assay: CCK8 cytotoxicity, RPMI 8266 multiple myeloma cells; type: cell-based; conditions: Homo sapiens, RPMI8266, 72 h
Description: as §1, §2, §3

OPM2 cells = assay: CCK8 cytotoxicity, OPM2 multiple myeloma cells; type: cell-based; conditions: Homo sapiens, OPM-2, 72 h
Description: as §1, §2, §3

DB cells = assay: CCK8 cytotoxicity, DB lymphoma cells; type: cell-based; conditions: Homo sapiens, 72 h
Description: (§4) A single-cell suspension of human multiple myeloma cells (H929 cells, OPM2 cells, U266 cells, OCI-MY5 cells, RPMI 8266 cells) was taken for cell counting, and the cell concentration was adjusted to 2×10^5 cells/mL. 95 μL of the above cell suspension was added into each well of a 96-well culture plate, and then 5 μL of the drug prepared with the medium was added at different concentrations, while the same volume of culture medium was added in the control group. Three parallel wells were set in each group. The plate was subjected to continuous culture for 72 h. 2 hours before the end of the culture, 10 μL of CCK8 reagent was added into each well, and the plate was continued to culture in a CO2 incubator. After 2 hours, the OD value of each well at 450 nm was detected by an automatic microplate reader. Cell viability and inhibition rate were calculated: cell viability (%)=(OD mean of experimental well/OD mean of control well)×100%. Cell inhibition rate (%)=100%−cell viability (%). The fitting function was used to determine the IC50 of the drug concentration when the cell growth was inhibited by 50%. The experiment was in triplicate.
(§5) Cell lines: human lymphoma cells (SUDHL-4 cells, OCI-LY1 cells, OCI-LY8 cells, DB cells, NU-DUL-1 cells, U2932 cells, TMD8 cells)(from ATCC. USA. The cells were passaged and preserved in the applicant's laboratory). IMDM (Gibco Co., USA). […]

OCI-LY1 cells = assay: CCK8 cytotoxicity, OCI-LY1 lymphoma cells; type: cell-based; conditions: Homo sapiens, 72 h
Description: as §4, §5

NU-DUL-1 cells = assay: CCK8 cytotoxicity, NU-DUL-1 lymphoma cells; type: cell-based; conditions: Homo sapiens, 72 h
Description: as §4, §5

OCI-LY8 cells [2] = assay: CCK8 cytotoxicity, OCI-LY8 lymphoma cells; type: cell-based; conditions: Homo sapiens, 72 h
Description: as §4, §5

OCI-MY5 cells = assay: CCK8 cytotoxicity, OCI-MY5 multiple myeloma cells; type: cell-based; conditions: Homo sapiens, 72 h
Description: as §1, §2, §3

TMD8 cells = assay: CCK8 cytotoxicity, TMD8 lymphoma cells; type: cell-based; conditions: Homo sapiens, 72 h
Description: as §4, §5

H929 cells [3] = assay: Animal experiment for multiple myeloma: subcutaneous H929 tumors in nude mice; type: in vivo, BALB/C nude mice; conditions: for Tumor volume, individual mice No. 1-4 / Tumor volume, mean: caudal vein
Description: (1) Cell line: human multiple myeloma cells (H929 cells) (from ATCC, USA. The cells were passaged and preserved in the applicant's laboratory), were cultured in a 1640 culture medium (containing 10% fetus bovine serum).
(2) Experimental animals: Male BALB/C nude mice (4-6 week old, purchased from Shanghai Sippr-BK laboratory animal Co. Ltd), were housed in an SPF condition (Center Laborotory Animal Room, Shanghai Tenth People's Hospital).
The cells were cultured in 1640 a 1640 culture medium (containing 10% fetus bovine serum, pH 7.2) supplemented with 2 mmol/L glutamine. The resultant was cultured in a incubator at 37° C. under 5% CO2 environment.
(§6) The 1640 medium containing 3.5×10^6 H929 cells was injected subcutaneously into the right axilla of the nude mice, and when the tumors grew to a measurable size, the mice were randomly assigned into the control group and the administration group. The nude mice in the administration group were injected through caudal vein with 4-hydroxy salicylanilide at 50 mg/kg and 100 mg/kg per day. The nude mice in the control group were injected with the same volume of solvent (200 μL, 5% DMSO+4% castor oil+91% normal saline). The tumor sizes were measured every two days (measuring the length and width of the tumor, tumor volume=0.5×(width)^2×length). The mice were sacrificed after a 22-day administration and the tumors were taken for taking photos.

U2932 cells = assay: CCK8 cytotoxicity, U2932 lymphoma cells; type: cell-based; conditions: Homo sapiens, 72 h
Description: as §4, §5

OCI-LY8 cells [4] = assay: Animal experiment against lymphoma: subcutaneous OCI-LY8 tumors in nude mice; type: in vivo, BALB/C nude mice; conditions: 60 mg/kg every other day, caudal vein, 18 days
Description: (1) Cell lines: human lymphoma cells (OCI-LY8 cells) (from ATCC, USA. The cells were passaged and preserved in the applicant's laboratory) were cultured in IMDM (containing 10% fetus bovine serum).
(2) Experimental animals: referring to Example 2.
as §6, with “IMDM” for “1640 medium”, “3×10^6 OCI-LY8” for “3.5×10^6 H929”, “60” for “50”, “ever other” for “and 100 mg/kg per”, “volume=4π/3×(width/2)^2×(length/2)).” for “volume=0.5×(width)^2×length).”, “18-day” for “22-day”

SUDHL-4 cells = assay: CCK8 cytotoxicity, SUDHL-4 lymphoma cells; type: cell-based; conditions: Homo sapiens, SU-DHL-4, 72 h
Description: as §4, §5

[5] = biological target: T1, Ribonucleotide reductase (RR) (Homo sapiens, UniProt P31350); conditions: shown in studies; cited from earlier work
T1 sequence (P31350 1-389): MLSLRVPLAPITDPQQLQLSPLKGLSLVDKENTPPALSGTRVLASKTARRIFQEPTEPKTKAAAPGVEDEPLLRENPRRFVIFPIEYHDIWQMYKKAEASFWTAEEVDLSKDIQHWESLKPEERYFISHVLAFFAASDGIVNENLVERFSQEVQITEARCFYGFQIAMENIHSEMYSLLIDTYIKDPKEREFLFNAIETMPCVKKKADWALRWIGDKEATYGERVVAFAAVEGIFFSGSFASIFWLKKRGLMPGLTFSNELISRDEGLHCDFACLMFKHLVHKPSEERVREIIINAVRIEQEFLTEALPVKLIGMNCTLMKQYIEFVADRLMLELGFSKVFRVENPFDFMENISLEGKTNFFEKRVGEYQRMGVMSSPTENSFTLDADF

## O=C(Nc1ccc(O)cc1)c1ccccc1O
H929 cells [1]
  IC50: 179 µM
U266 cells
  IC50: 271 µM
RPMI 8266 cells
  IC50: 170 µM
OPM2 cells
  IC50: 84 µM
DB cells
  IC50: 178 µM
OCI-LY1 cells
  IC50: 117 µM
NU-DUL-1 cells
  IC50: 188 µM
OCI-LY8 cells [2]
  IC50: 76 µM
OCI-MY5 cells
  IC50: 211 µM
TMD8 cells
  IC50: 164 µM
H929 cells [3]; 50 mg/kg per day, day 0
  Tumor volume, individual mice No. 1-4: 0.08 cm^3 (2×) and 0.11 cm^3 and 0.10 cm^3
  Tumor volume, mean: 0.10 cm^3
H929 cells [3]; 50 mg/kg per day, day 2
  Tumor volume, individual mice No. 1-4: 0.15 cm^3 (2×) and 0.17 cm^3 and 0.11 cm^3
  Tumor volume, mean: 0.15 cm^3
H929 cells [3]; 50 mg/kg per day, day 4
  Tumor volume, individual mice No. 1-4: 0.24 cm^3 and 0.25 cm^3 and 0.22 cm^3 and 0.14 cm^3
  Tumor volume, mean: 0.21 cm^3
H929 cells [3]; 50 mg/kg per day, day 6
  Tumor volume, individual mice No. 1-4: 0.38 cm^3 (2×) and 0.30 cm^3 and 0.27 cm^3
  Tumor volume, mean: 0.33 cm^3
H929 cells [3]; 50 mg/kg per day, day 8
  Tumor volume, individual mice No. 1-4: 0.58 cm^3 and 0.50 cm^3 and 0.37 cm^3 (2×)
  Tumor volume, mean: 0.45 cm^3
H929 cells [3]; 50 mg/kg per day, day 10
  Tumor volume, individual mice No. 1-4: 0.77 cm^3 and 0.63 cm^3 and 0.64 cm^3 and 0.49 cm^3
  Tumor volume, mean: 0.63 cm^3
H929 cells [3]; 50 mg/kg per day, day 12
  Tumor volume, individual mice No. 1-4: 0.99 cm^3 and 0.78 cm^3 and 0.80 cm^3 and 0.74 cm^3
  Tumor volume, mean: 0.83 cm^3
H929 cells [3]; 50 mg/kg per day, day 14
  Tumor volume, individual mice No. 1-4: 1.20 cm^3 and 1.15 cm^3 and 0.97 cm^3 and 1.03 cm^3
  Tumor volume, mean: 1.09 cm^3
H929 cells [3]; 50 mg/kg per day, day 16
  Tumor volume, individual mice No. 1-4: 1.53 cm^3 and 1.47 cm^3 and 1.31 cm^3 and 1.35 cm^3
  Tumor volume, mean: 1.41 cm^3
H929 cells [3]; 50 mg/kg per day, day 18
  Tumor volume, individual mice No. 1-4: 2.08 cm^3 and 1.81 cm^3 and 1.54 cm^3 and 1.71 cm^3
  Tumor volume, mean: 1.79 cm^3
H929 cells [3]; 50 mg/kg per day, day 20
  Tumor volume, individual mice No. 1-4: 2.59 cm^3 and 2.22 cm^3 and 1.77 cm^3 and 2.12 cm^3
  Tumor volume, mean: 2.17 cm^3
H929 cells [3]; 50 mg/kg per day, day 22
  Tumor volume, individual mice No. 1-4: 3.39 cm^3 and 2.44 cm^3 and 2.19 cm^3 and 2.89 cm^3
  Tumor volume, mean: 2.72 cm^3
H929 cells [3]; 100 mg/kg per day, day 0
  Tumor volume, individual mice No. 1-4: 0.10 cm^3 and 0.08 cm^3 and 0.04 cm^3 and 0.07 cm^3
  Tumor volume, mean: 0.07 cm^3
H929 cells [3]; 100 mg/kg per day, day 2
  Tumor volume, individual mice No. 1-4: 0.12 cm^3 and 0.09 cm^3 and 0.08 cm^3 (2×)
  Tumor volume, mean: 0.09 cm^3
H929 cells [3]; 100 mg/kg per day, day 4
  Tumor volume, individual mice No. 1-4: 0.13 cm^3 (2×) and 0.14 cm^3 and 0.10 cm^3
  Tumor volume, mean: 0.13 cm^3
H929 cells [3]; 100 mg/kg per day, day 6
  Tumor volume, individual mice No. 1-4: 0.17 cm^3 (2×) and 0.15 cm^3 and 0.13 cm^3
  Tumor volume, mean: 0.16 cm^3
H929 cells [3]; 100 mg/kg per day, day 8
  Tumor volume, individual mice No. 1-4: 0.26 cm^3 and 0.20 cm^3 and 0.25 cm^3 and 0.17 cm^3
  Tumor volume, mean: 0.22 cm^3
H929 cells [3]; 100 mg/kg per day, day 10
  Tumor volume, individual mice No. 1-4: 0.39 cm^3 and 0.23 cm^3 (2×) and 0.31 cm^3
  Tumor volume, mean: 0.29 cm^3
H929 cells [3]; 100 mg/kg per day, day 12
  Tumor volume, individual mice No. 1-4: 0.53 cm^3 and 0.31 cm^3 and 0.39 cm^3 and 0.25 cm^3
  Tumor volume, mean: 0.37 cm^3
H929 cells [3]; 100 mg/kg per day, day 14
  Tumor volume, individual mice No. 1-4: 0.77 cm^3 and 0.42 cm^3 and 0.44 cm^3 and 0.27 cm^3
  Tumor volume, mean: 0.47 cm^3
H929 cells [3]; 100 mg/kg per day, day 16
  Tumor volume, individual mice No. 1-4: 0.93 cm^3 and 0.49 cm^3 and 0.50 cm^3 and 0.32 cm^3
  Tumor volume, mean: 0.56 cm^3
H929 cells [3]; 100 mg/kg per day, day 18
  Tumor volume, individual mice No. 1-4: 1.20 cm^3 and 0.57 cm^3 (2×) and 0.31 cm^3
  Tumor volume, mean: 0.66 cm^3
H929 cells [3]; 100 mg/kg per day, day 20
  Tumor volume, individual mice No. 1-4: 1.27 cm^3 and 0.63 cm^3 and 0.65 cm^3 and 0.34 cm^3
  Tumor volume, mean: 0.72 cm^3
H929 cells [3]; 100 mg/kg per day, day 22
  Tumor volume, individual mice No. 1-4: 1.39 cm^3 and 0.71 cm^3 and 0.80 cm^3 and 0.40 cm^3
  Tumor volume, mean: 0.82 cm^3
H929 cells [3]; H929 tumors in nude mice, 50 and 100 mg/kg per day, 22 days, dose-dependent, P<0.01 at day 22
  Inhibition of tumor growth in animals (in words): significantly inhibit the tumor growth; also recorded: effective in inhibiting the growth of multiple myeloma
U2932 cells
  IC50: 156 µM
OCI-LY8 cells [4]
  Inhibition of growth of lymphoma in nude mice (in words): effectively inhibit the growth of lymphoma
SUDHL-4 cells
  IC50: 73 µM
[5]
  Inhibition of Ribonucleotide reductase (in words): inhibitor

— US20190060330A1, “APPLICATION OF 4-HYDROXY SALICYLANILIDE IN PREPARATION OF ANTI-MYELOMA OR ANTI-LYMPHOMA DRUGS” (priority 2016, published 2019)
